The text below walks through data of patent US11021529B2, “Antimicrobial constructs and uses thereof” (priority 2017, dated 2021).

In brackets after ≈: the same amount, converted by molar mass. Where two headings read alike, the source gives them in different places. A value given as a limit tells only on which side of the number the result lay.

What all share (assay type): cell-based
Experiment [1] deals with P. aeruginosa strain PA01. Kind of experiment: Growth (MIC) assay in P. aeruginosa strain PA01. Conditions: peptide concentration range 0-5 μM. On the procedure:
The minimal inhibitory concentrations (MIC) were measured in P. aeruginosa and cell viability in mammalian cells at a peptide concentration range between 0-5 μM. Toxicity was evaluated in NIH 3T3 mouse fibroblasts and Neuro-2a neuroblastoma. To negatively select against tandem peptides that may cause red blood lysis when administered in animals, the peptides were also screened in a hemolysis assay. In the range of concentrations tested, no membrane-active peptide had inhibitory activity against bacteria when not in tandem with dKK (FIG. 2), supporting the rationale of the tandem peptide architecture. At these concentrations, dKK alone also had no activity against P. aeruginosa (FIG. 2). Since it is advantageous to identify antibacterial agents which have narrow-spectrum activity, antibacterial efficacy against other gram-negative bacterial species (E. coli) and a gram-positive bacterial species (S. aureus; FIG. 1B) was also assessed. The best performing tandem peptide was lactoferrin-dKK (LACT-dKK). Lactoferrin peptide ([…], SEQ ID NO: 1) is from a protein in the transferrin family with known membrane interactions with bacteria. […]
For each experiment, P. aeruginosa strain PA01 was started from a frozen glycerol stock and cultured overnight. […] The number of colony forming units (CFU) per mL was determined by titering cultures with known absorbance values. […]

For experiment [2], the system named is P. aeruginosa. In words: Checkerboard assays (fractional inhibitory concentration indices) with WLBU2 potentiator. Conditions: drug combined with WLBU2 potentiator (W2-grafted dextran).
Text: In some embodiments, checkerboard assays can be used to determine if two antimicrobial agents have synergy, additive, or antagonistic effects when dosed together. Checkboard assays determine the interaction and potency of two test articles when used concurrently. Using Lorian methodology, the effect on potency of the combination of antimicrobials in comparison to their individual activities, represented as the Fractional Inhibitory Concentration (FIC) index value. To quantify the interactions between the antimicrobials being tested, the FIC index (the combination of antimicrobials that produced the greatest change from the individual antimicrobial's MIC) value is calculated for each strain and antimicrobial combination: (A/MICA)+(B/MICB)=FICA+FICB=FIC Index, where A and B are the MIC of each antimicrobial in combination (in a single well), and MICA and MICB are the MIC of each antimicrobial individually.
In experiment [3] the test system is P. aeruginosa. Kind of experiment: Super-resolution microscopy of membrane association and permeabilization. Conditions: fluorescently labeled peptide or potentiator. From the text: In order to identify peptides which would improve the penetration of small molecules into bacteria library of 30 peptide-linezolid conjugates was synthesized using antimicrobial peptides curated from literature. Linezolid is a small molecule that is normally unable to kill gram-negative bacteria due to its inability to cross the membrane. The peptide-linezolid library was screened in a growth inhibition assay in P. aeruginosa. […] WLBU2 is part of a family of helical cationic peptides that were designed to specifically kill P. aeruginosa. Other members of this peptide family, WLBU1 and LBU2, were synthesized in tandem with P. aeruginosa targeting peptides (P9b and EKR) and conjugated to linezolid. These peptide-drug conjugates were evaluated for their ability to inhibit P. aeruginosa and cross validated for mammalian cell toxicity.
To visualize membrane permeabilization of WLBU2, P. aeruginosa was incubated with Alexa Fluor 488-labeld WLBU2 potentiator for 15 minutes and subsequently washed 2 times with phosphate buffer solution to remove unbound potentiator. Bacteria were then stained with a membrane dye.

Experiment [4] concerns P. aeruginosa strain PA01. Kind of experiment: MIC in wild-type P. aeruginosa strain PA01 (Table 3). Conditions: Pseudomonas aeruginosa.
The next experiment deals with P. aeruginosa strain Z61. In words: MIC in hyperpermeable P. aeruginosa strain Z61 (Table 3). The following applies: Pseudomonas aeruginosa.
Experiment [5] has as its system P. aeruginosa strain PA14. Kind of experiment: MIC in wild-type P. aeruginosa strain PA14 (Table 3). Conditions: Pseudomonas aeruginosa.

As to “D(KLAKLAK)2 (KLAKLAKKLAKLAK; D-amino acids; Synthetic - antimicrobial peptide comprised of D-amino acids) [dKK]”, the “inhibitory activity against bacteria / P. aeruginosa” value in experiment [1] is on record as “no activity”.

For `C=C[C@]1(C)C[C@@H](OC(=O)CS[C@@H]2C[C@H]3CC[C@@H](C2)N3C)[C@]2(C)[C@H](C)CC[C@]3(CCC(=O)[C@H]32)[C@@H](C)[C@@H]1O` [retapamulin], the “fractional inhibitory concentration indices (FICIs), interaction with WLBU2 potentiator” value with P. aeruginosa [2] is reported as “synergy”.

Take “RRWVRRVRRWVRRVVRVVRRWVRR (Synthetic WLBU2)”: in the experiment with P. aeruginosa [3], the “localization in P. aeruginosa (super-resolution microscopy)” value is “able to associate with the membrane and localize to the cytosol”.

Turning to `O=C(O)c1cn(C2CC2)c2cc(N3CCNCC3)c(F)cc2c1=O` [Ciprofloxacin], the MIC in experiment [4] (P. aeruginosa strain PA01, read-out: MIC) was 2 µg/mL (≈ 6.04 µM); in the experiment on P. aeruginosa strain Z61, below 0.25 µg/mL; in experiment [5] (P. aeruginosa strain PA14, read-out: MIC) it was 0.5 µg/mL (≈ 1.51 µM).

With `CC(=O)NC[C@H]1CN(c2ccc(N3CCOCC3)c(F)c2)C(=O)O1` [Linezolid], the values for the MIC (in experiment [4] (PA01); in the experiment on P. aeruginosa strain Z61; in experiment [5] (PA14)) were above 128 µg/mL, 8 µg/mL (≈ 23.7 µM) and above 128 µg/mL, respectively.

In the case of `CO[C@@H]1[C@@H](OC(N)=O)[C@@H](O)[C@H](Oc2ccc3c(O)c(NC(=O)c4ccc(O)c(CC=C(C)C)c4)c(=O)oc3c2C)OC1(C)C` [novobiocin], the “fractional inhibitory concentration indices (FICIs), interaction with WLBU2 potentiator” value with P. aeruginosa [2] is “synergy”.
